Laboratory results reported in patent US10160867B2, “Benzoxaborole-containing coating resistant to cellulose-supportable fungus” (THE PENN STATE RESEARCH FOUNDATION, priority 2015, dated 2018).
Values after ≈ are worked out from the molar mass of the structure shown.

Experiments:
Alternaria alternata = assay: Painted discs with or without UV irradiation before inoculation (defacement); assay type: cell-based; parameters: key: rating 10 = 0% defacement to 0 = 91-100% defacement; conditions: +100 μg/mL in Olympic Home latex paint
Method: In a separate study, painted filter paper discs were irradiated with UV light from a 30 watt bulb for 2 hours and then inoculated with Alternaria alternata spores (“+UV” in the table below), or were inoculated without prior UV irradiation (“no UV” in the Table 4). The painted filter papers were incubated as discussed elsewhere herein, evaluated at 13 and 21 days post-inoculation for defacement by fungal growth and compared to similar painted filter paper discs that were not irradiated prior to inoculation.
Samples were evaluated at regular intervals. The intensity of the fungal growth was rated by estimating the percentage of surface defacement using the following ratings: 10: 0% defacement; 9=1-10% defacement; 8=11-20% defacement; 7=21-30% defacement; 6=31-40% defacement; 5=41-50% defacement; 4=51-60% defacement; 3=61-70% defacement; 2=71-80% defacement; 1=81-90% defacement; and 0=91-100% defacement. A grid that divides the circular area into 20 equal sections as shown in FIG. 1 was used to estimate the extent (percent defacement) of fungal growth.

[1] = +UV (30 watt bulb, 2 hours, before inoculation), 13 days
[2] = +UV (30 watt bulb, 2 hours, before inoculation), 21 days

With `CCCCNC(=O)OCC#CI` [IPBC, 3-Iodo-2-propynylbutylcarbamate] the “Average Defacement ± standard deviation for 3 replicates” value (“Average Defacement ± standard deviation” below) (Alternaria alternata; [1]) was 9.7 ± 0.6, the “Average Defacement ± standard deviation” value (Alternaria alternata; [2]) was 6.0 ± 4.4 and the “Average Defacement ± standard deviation” value (Alternaria alternata; no UV, 13 days) was 8.3 ± 2.1. The “Average Defacement ± standard deviation” value (Alternaria alternata; no UV, 21 days) was 4.0 ± 4.0.

For `OB1OCc2cc(F)ccc21` [Compound B9, 5-Fluoro-1,3-dihydro-2,1-benzoxaborol-1-ol], the solubility (Solubility in water) was 800 µg/mL (≈ 5.27 mM), the “Average Defacement ± standard deviation” value (Alternaria alternata; [1]) was 10.0 ± 0.0 and the “Average Defacement ± standard deviation” value (Alternaria alternata; [2]) was 8.3 ± 2.1. The “Average Defacement ± standard deviation” value (Alternaria alternata; no UV, 13 days) was 10.0 ± 0.0 and the “Average Defacement ± standard deviation” value (Alternaria alternata; no UV, 21 days) was 9.0 ± 0.0.
